The NIST ThermoML archive (doi:10.1021/acs.jced.9b00442)

Columns and labels:
[1] = refractive index (Na D-line) (dimensionless); conditions: 100 kPa, Liquid, Standard Abbe refractometry
[2] = 100 kPa, Liquid; for electrical conductivity: Frequency=0.0006 MHz, Alternating current cell with electrodes; for viscosity: Concentric cylinders viscometry; for mass density: Vibrating tube method

CC[N+](C)(C)CCCO.O=S(=O)([N-]S(=O)(=O)C(F)(F)F)C(F)(F)F
Conditions | electrical conductivity [S/m] | mass density [kg/m3] | refractive index | viscosity [mPa·s]
[1], 283.15 K | – | – | 1.4253 | –
[1], 288.15 K | – | – | 1.4241 | –
[1], 293.15 K | – | – | 1.4228 | –
[1], 298.15 K | – | – | 1.4215 | –
[1], 303.15 K | – | – | 1.4203 | –
[1], 308.15 K | – | – | 1.419 | –
[1], 313.15 K | – | – | 1.4176 | –
[1], 318.15 K | – | – | 1.4164 | –
[1], 323.15 K | – | – | 1.4151 | –
[1], 328.15 K | – | – | 1.4139 | –
[1], 333.15 K | – | – | 1.4126 | –
[1], 338.15 K | – | – | 1.4114 | –
[1], 343.15 K | – | – | 1.4101 | –
[1], 348.15 K | – | – | 1.4089 | –
[1], 353.15 K | – | – | 1.4076 | –
[1], 358.15 K | – | – | 1.4064 | –
[2], 283.15 K | 0.049 | – | – | –
[2], 288.15 K | 0.069 | 1472.2 | – | 314
[2], 289.15 K | – | 1471.4 | – | –
[2], 290.15 K | – | 1470.5 | – | –
[2], 291.15 K | – | 1469.6 | – | –
[2], 292.15 K | – | 1468.7 | – | –
[2], 293.15 K | 0.095 | 1467.8 | – | 220.1
[2], 294.15 K | – | 1466.9 | – | –
[2], 295.15 K | – | 1466.1 | – | –
[2], 296.15 K | – | 1465.2 | – | –
[2], 297.15 K | – | 1464.3 | – | –
[2], 298.15 K | 0.125 | 1463.4 | – | 166
[2], 299.16 K | – | 1462.5 | – | –
[2], 300.16 K | – | 1461.7 | – | –
[2], 301.15 K | – | 1460.8 | – | –
[2], 302.15 K | – | 1459.9 | – | –
[2], 303.15 K | 0.162 | 1459 | – | 125.4
[2], 304.15 K | – | 1458.2 | – | –
[2], 305.15 K | – | 1457.3 | – | –
[2], 306.15 K | – | 1456.4 | – | –
[2], 307.15 K | – | 1455.5 | – | –
[2], 308.15 K | 0.204 | 1454.7 | – | 96.7
[2], 309.15 K | – | 1453.8 | – | –
[2], 310.15 K | – | 1452.9 | – | –
[2], 311.15 K | – | 1452 | – | –
[2], 312.15 K | – | 1451.2 | – | –
[2], 313.15 K | 0.253 | 1450.3 | – | 76.8
[2], 314.15 K | – | 1449.4 | – | –
[2], 315.15 K | – | 1448.6 | – | –
[2], 316.15 K | – | 1447.7 | – | –
[2], 317.15 K | – | 1446.8 | – | –
[2], 318.15 K | 0.309 | 1446 | – | 60.9
[2], 319.15 K | – | 1445.1 | – | –
[2], 320.15 K | – | 1444.2 | – | –
[2], 321.15 K | – | 1443.4 | – | –
[2], 322.15 K | – | 1442.5 | – | –
[2], 323.15 K | 0.371 | 1441.6 | – | 49.5
[2], 324.15 K | – | 1440.8 | – | –
[2], 325.15 K | – | 1439.9 | – | –
[2], 326.15 K | – | 1439 | – | –
[2], 327.15 K | – | 1438.2 | – | –
[2], 328.15 K | – | 1437.3 | – | 40.8
[2], 329.15 K | – | 1436.4 | – | –
[2], 330.15 K | – | 1435.6 | – | –
[2], 331.15 K | – | 1434.7 | – | –
[2], 332.15 K | – | 1433.9 | – | –
[2], 333.15 K | – | 1433 | – | 34.5
[2], 334.15 K | – | 1432.1 | – | –
[2], 335.16 K | – | 1431.3 | – | –
[2], 336.15 K | – | 1430.4 | – | –
[2], 337.15 K | – | 1429.6 | – | –
[2], 338.15 K | – | 1428.7 | – | 28.8
[2], 339.15 K | – | 1427.8 | – | –
[2], 340.15 K | – | 1427 | – | –
[2], 341.15 K | – | 1426.1 | – | –
[2], 342.15 K | – | 1425.3 | – | –
[2], 343.15 K | – | 1424.4 | – | 24.6
[2], 344.15 K | – | 1423.6 | – | –
[2], 345.15 K | – | 1422.7 | – | –
[2], 346.15 K | – | 1421.9 | – | –
[2], 347.15 K | – | 1421 | – | –
[2], 348.15 K | – | 1420.1 | – | 21.2
[2], 349.15 K | – | 1419.3 | – | –
[2], 350.15 K | – | 1418.4 | – | –
[2], 351.15 K | – | 1417.6 | – | –
[2], 352.15 K | – | 1416.7 | – | –
[2], 353.15 K | – | 1415.9 | – | 18.7
[2], 354.15 K | – | 1415 | – | –
[2], 355.15 K | – | 1414.2 | – | –
[2], 356.15 K | – | 1413.3 | – | –
[2], 357.15 K | – | 1412.5 | – | –
[2], 358.15 K | – | 1411.7 | – | 16.2
[2], 359.15 K | – | 1410.8 | – | –
[2], 360.15 K | – | 1410 | – | –
[2], 361.15 K | – | 1409.1 | – | –
[2], 362.16 K | – | 1408.3 | – | –
[2], 363.15 K | – | 1407.4 | – | 14.3
